In test [1] the target is T1, CapF lacking the His6-tag (Staphylococcus aureus, UniProt A0A0H3JP37).
T1 sequence (A0A0H3JP37 1-369): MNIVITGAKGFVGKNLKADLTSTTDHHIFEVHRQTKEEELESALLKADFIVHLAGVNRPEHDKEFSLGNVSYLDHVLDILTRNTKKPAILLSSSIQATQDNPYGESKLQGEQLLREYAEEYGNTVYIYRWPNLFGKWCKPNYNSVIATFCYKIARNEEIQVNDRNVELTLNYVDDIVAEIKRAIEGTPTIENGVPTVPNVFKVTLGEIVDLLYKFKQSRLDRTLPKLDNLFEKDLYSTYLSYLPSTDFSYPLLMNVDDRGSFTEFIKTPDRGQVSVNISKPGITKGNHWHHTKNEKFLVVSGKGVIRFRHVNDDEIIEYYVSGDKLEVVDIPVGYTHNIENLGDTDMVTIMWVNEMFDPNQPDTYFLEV
The test is described as follows: ITC binding to CapF lacking the His6-tag. As to the method:
A control experiment with CapF lacking the His6-tag was carried to rule out the possibility of spurious effects caused by the affinity tag (Supplementary Information Figure S4).
Figure S4. Binding of 3-isopropyl-tropolone to CapF lacking the His6-tag. Titration of CapF (220 µM) with 2.2 mM inhibitor in a buffer composed of 10 mM HEPES (pH 7.5), 150 mM NaCl, and 5% DMSO at 25 °C. A construct of full-length CapF bearing a cleavable His6-tag was prepared and purified exactly as that of CapF Δ57-70 (see Methods section for the detailed protocol of CapFΔ57-70), except that (i) the dialysis buffer after to reconstitute the enzyme with Zn2+ contained 150 mM NaCl (instead of 50 mM) and 12.5 µM ZnCl2 (instead of 10 µM), and (ii) the buffer of the size exclusion chromatography step contained 10 mM HEPES (instead of 50 mM) and 150 mM NaCl (instead of 50 mM). The values of the thermodynamic parameters […]
kcal mol-1, and n = 0.92 ± 0.1.
(1 picture or pasted object on this page, not shown here)

The test system of test [2] is CapF. The test is described as follows: HPLC-based inhibition assay (CapE/CapF coupled reaction). Format: biochemical, Staphylococcus aureus. As to conditions: 1 mM compound, 37 °C, 2 hours. As to the method:
For that purpose, an HPLC-based assay monitoring the consumption of substrate and the appearance of product was employed (Fig. 2b)[12]. Whereas in the absence of 3-isopropenyl-tropolone the substrate was converted into product with nearly quantitative yield (91%), in the presence of 1 mM 3-isopropenyl-tropolone the peaks corresponding to substrate and product were largely absent (their combined areas were <18%). Instead, a large peak corresponding to the byproduct generated by the enzyme CapE under thermodynamic control was observed (80% yield as judged from the area under the curve). To confirm that inhibition of 3-isopropenyl-tropolone is specific for CapF we performed an additional experiment employing only CapE, which is the enzyme generating the substrate for CapF in the functional assay (Supplementary Information Figure S2).
For the HPLC-based inhibition assay, a solution containing 1.0 μM CapE, 0.02 μM CapF, 250 μM UDP-D-GlcNAc, 250 μM NADPH, and 1 mM compound in HBS buffer supplemented with 0.005% (v/v) Tween-20 and 5% (v/v) DMSO were incubated at 37 °C for 2 hours. The reaction was stopped by addition of 100 μL of ice-cold phenol/chloroform/isoamyl alcohol in a 25:24:1 […]. The supernatant containing the products of the reaction was mixed with 100 μL of chloroform and examined by HPLC using a CarboPac PA1 anion-exchange column (Dionex) as described previously. […]

The target of test [3] is CapF. In words: SPR binding to immobilized CapF. As to conditions: 25 °C. On the set-up: species or system Staphylococcus aureus. The source says:
To identify small-molecule inhibitors of CapF we employed fragment-based methodologies (Supplementary Information Figure S1)[13][14]. A fragment library consisting of 1,994 compounds was obtained from the Drug Discovery Initiative program (The University of Tokyo, see the Methods section for an brief description of the features of this library). This library was employed to screen for potential inhibitors of CapF using the technique of surface plasmon resonance (SPR). This screening methodology identified compounds with the ability to bind to the target protein but not by their inhibitory potency. Inhibition was only assessed with the selected hit compound using two separate enzymatic assays (see below). To maximize the sensitivity of the SPR signal the microtiter-based assay mode was employed. The values of the parameters CV (1.0%) and Z-factor (0.93) were monitored throughout the screen. […]
A total of 15 compounds selected from the library screening were next evaluated with SPR at three different concentrations (100 μM, 10 μM, and 1 μM) to detect compounds giving false positive signals, which are generally known as nonspecific and promiscuous binders. […] Lastly, we determined the binding affinity of these five compounds for CapF with SPR. […]

A short description of test [4]: ITC titration of free Zn2+ in solution. As to conditions: 150 µM Zn2+ (ZnCl2) titrated with 1.65 mM compound. Format: binding. The text has this:
Because tropolone and its analogs have been described as metal chelators in proteins, we anticipated that binding of the inhibitor to CapF is governed by the Zn^2+ ion present in the cupin domain[12]. To confirm this hypothesis, we performed two different types of experiments. First, we determined the binding properties of 3-isopropenyl-tropolone to apo-CapF (i.e. Zn^2+-depleted CapF) and to holo-CapF (reconstituted with Zn^2+) by isothermal titration calorimetry (ITC). The stoichiometry is consistent with a 1:1 binding model.
Figure S3. Zn2+ governs the binding of inhibitor to CapF. (a) Titration of 150 µM Zn2+ (prepared
from ZnCl2) with 1.65 mM 3-isopropenyl-tropolone. (b) Fluorescence of the Zn2+-sensitive dye
FluoZin-3 (1.0 µM) in the presence of CapF (1 µM), CapF (1 µM) with 3-isopropenyl-tropolone […]
In general terms: In ITC the heat of successive injections is recorded.

A value given as a limit tells only on which side of the number the result lay.

As for `C=C(C)c1ccccc(=O)c1O` [3-isopropenyl-tropolone], the affinity in test [1], expressed as Kd, was 13 ± 1 µM. For the same compound, in test [1] (ITC, 25 °C), the “-TΔS” value was -3.0 ± 0.4 kcal/mol, the n amounted to 0.92 ± 0.1 and the ΔH is -3.6 ± 0.3 kcal/mol. The “yield of byproduct generated by CapE (area under the curve)” value in the test with CapF [2] is 80%. Moreover, in the test with CapF [2] (91% product without inhibitor), the “combined areas of substrate and product peaks” value was < 18%. Further, on CapF [3], the “binding affinity for CapF with SPR” value is “sub-millimolar”. Besides, the “binding to free-Zn^2+ in solution by ITC” value in test [4] was “not detected”.

These data come from article PMC5393024, “Discovery and characterization of natural tropolones as inhibitors of the antibacterial target CapF from Staphylococcus aureus” (Scientific Reports, 2015).
